In US8772480B2, “Inhibitors of PI3 kinase and/or mTOR” (priority 2009, dated 2014):

Tests used:
Assay type in all cases: biochemical
[1] = target: ProfilerPro Kinase Selectivity Assay Kit kinases (Homo sapiens, UniProt O00141); details: SGK1; 1 μM compound concentration
Experimental: (§1) Compounds were profiled using a LabChip® EZ Reader II platform and a ProfilerPro Kinase Selectivity Assay Kit (Caliper Lifesciences Inc., Hopkinton, Mass.). Compounds were tested at a concentration of 1 M in duplicate, with mean data reported as percent of control (POC).

[2] = target: ProfilerPro Kinase Selectivity Assay Kit kinases (Homo sapiens, UniProt O14965); details: AURORA A; 1 μM compound concentration
Experimental: as §1

[3] = target: ProfilerPro Kinase Selectivity Assay Kit kinases (Homo sapiens, UniProt O75582); details: MSK1; 1 μM compound concentration
Experimental: as §1

[4] = target: ProfilerPro Kinase Selectivity Assay Kit kinases (Homo sapiens, UniProt O96017); details: CHK2; 1 μM compound concentration
Experimental: as §1

[5] = target: ProfilerPro Kinase Selectivity Assay Kit kinases (Homo sapiens, UniProt P00519); details: ABL; 1 μM compound concentration
Experimental: as §1

[6] = target: ProfilerPro Kinase Selectivity Assay Kit kinases (Homo sapiens, UniProt P04049); details: cRAF; 1 μM compound concentration
Experimental: as §1

[7] = target: ProfilerPro Kinase Selectivity Assay Kit kinases (Homo sapiens, UniProt P06239); details: LCK; 1 μM compound concentration
Experimental: as §1

[8] = target: ProfilerPro Kinase Selectivity Assay Kit kinases (Homo sapiens, UniProt P06241); details: FYN; 1 μM compound concentration
Experimental: as §1

[9] = target: ProfilerPro Kinase Selectivity Assay Kit kinases (Homo sapiens, UniProt P07948); details: LYN; 1 μM compound concentration
Experimental: as §1

[10] = target: ProfilerPro Kinase Selectivity Assay Kit kinases (Homo sapiens, UniProt P08069); details: IGF1R; 1 μM compound concentration
Experimental: as §1

[11] = target: ProfilerPro Kinase Selectivity Assay Kit kinases (Homo sapiens, UniProt P08581); details: cMET; 1 μM compound concentration
Experimental: as §1

[12] = target: ProfilerPro Kinase Selectivity Assay Kit kinases (Homo sapiens, UniProt P11362); details: FGFR1; 1 μM compound concentration
Experimental: as §1

[13] = target: ProfilerPro Kinase Selectivity Assay Kit kinases (Homo sapiens, UniProt P12931); details: SRC; 1 μM compound concentration
Experimental: as §1

[14] = target: ProfilerPro Kinase Selectivity Assay Kit kinases (Homo sapiens, UniProt P23443); details: p70S6K; 1 μM compound concentration
Experimental: as §1

[15] = target: ProfilerPro Kinase Selectivity Assay Kit kinases (Homo sapiens, UniProt P24941); details: CDK2; 1 μM compound concentration
Experimental: as §1

[16] = target: ProfilerPro Kinase Selectivity Assay Kit kinases (Homo sapiens, UniProt P27361); details: ERK1; 1 μM compound concentration
Experimental: as §1

[17] = target: ProfilerPro Kinase Selectivity Assay Kit kinases (Homo sapiens, UniProt P28482); details: ERK2; 1 μM compound concentration
Experimental: as §1

[18] = target: ProfilerPro Kinase Selectivity Assay Kit kinases (Homo sapiens, UniProt P31749); details: AKT1; 1 μM compound concentration
Experimental: as §1

[19] = target: ProfilerPro Kinase Selectivity Assay Kit kinases (Homo sapiens, UniProt P35968); details: KDR; 1 μM compound concentration
Experimental: as §1

[20] = target: ProfilerPro Kinase Selectivity Assay Kit kinases (Homo sapiens, UniProt P36888); details: FLT3; 1 μM compound concentration
Experimental: as §1

[21] = target: ProfilerPro Kinase Selectivity Assay Kit kinases (Homo sapiens, UniProt P43405); details: SYK; 1 μM compound concentration
Experimental: as §1

[22] = target: ProfilerPro Kinase Selectivity Assay Kit kinases (Homo sapiens, UniProt P49841); details: GSK3 beta; 1 μM compound concentration
Experimental: as §1

[23] = target: ProfilerPro Kinase Selectivity Assay Kit kinases (Homo sapiens, UniProt Q05513); details: PKC zeta; 1 μM compound concentration
Experimental: as §1

[24] = target: ProfilerPro Kinase Selectivity Assay Kit kinases (Homo sapiens, UniProt Q13188); details: MST2; 1 μM compound concentration
Experimental: as §1

[25] = target: ProfilerPro Kinase Selectivity Assay Kit kinases (Homo sapiens, UniProt Q13627); details: DYRK1a; 1 μM compound concentration
Experimental: as §1

[26] = target: ProfilerPro Kinase Selectivity Assay Kit kinases (Homo sapiens, UniProt Q13976); details: PKGa2; 1 μM compound concentration
Experimental: as §1

[27] = target: ProfilerPro Kinase Selectivity Assay Kit kinases (Homo sapiens, UniProt Q15418); details: RSK1; 1 μM compound concentration
Experimental: as §1

[28] = target: ProfilerPro Kinase Selectivity Assay Kit kinases (Homo sapiens, UniProt Q16539); details: p38 alpha; 1 μM compound concentration
Experimental: as §1

[29] = target: ProfilerPro Kinase Selectivity Assay Kit kinases (Homo sapiens, UniProt Q16566); details: CAMK4; 1 μM compound concentration
Experimental: as §1

[30] = target: ProfilerPro Kinase Selectivity Assay Kit kinases (Homo sapiens, UniProt Q9BZL6); details: PKD2; 1 μM compound concentration
Experimental: as §1

[31] = test system: ProfilerPro Kinase Selectivity Assay Kit kinases; details: 1 μM compound concentration
Experimental: as §1

Sequence of ProfilerPro Kinase Selectivity Assay Kit kinases (Homo sapiens, UniProt P06241) (P06241 2-537 limits assumed): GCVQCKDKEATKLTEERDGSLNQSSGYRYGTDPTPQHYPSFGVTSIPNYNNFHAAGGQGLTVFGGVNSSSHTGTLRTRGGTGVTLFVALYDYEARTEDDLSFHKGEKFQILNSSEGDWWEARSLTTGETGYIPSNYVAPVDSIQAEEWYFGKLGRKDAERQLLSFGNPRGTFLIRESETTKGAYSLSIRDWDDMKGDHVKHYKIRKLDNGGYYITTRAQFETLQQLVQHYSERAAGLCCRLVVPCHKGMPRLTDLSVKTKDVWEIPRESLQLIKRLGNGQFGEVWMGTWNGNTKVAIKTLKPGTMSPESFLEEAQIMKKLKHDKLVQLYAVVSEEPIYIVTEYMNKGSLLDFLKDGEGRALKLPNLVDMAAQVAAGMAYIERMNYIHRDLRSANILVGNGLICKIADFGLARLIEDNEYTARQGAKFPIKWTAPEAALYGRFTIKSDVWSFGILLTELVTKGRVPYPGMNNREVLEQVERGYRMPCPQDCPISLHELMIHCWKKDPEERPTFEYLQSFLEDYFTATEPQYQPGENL
Sequence of ProfilerPro Kinase Selectivity Assay Kit kinases (Homo sapiens, UniProt P07948) (P07948 2-512 limits assumed): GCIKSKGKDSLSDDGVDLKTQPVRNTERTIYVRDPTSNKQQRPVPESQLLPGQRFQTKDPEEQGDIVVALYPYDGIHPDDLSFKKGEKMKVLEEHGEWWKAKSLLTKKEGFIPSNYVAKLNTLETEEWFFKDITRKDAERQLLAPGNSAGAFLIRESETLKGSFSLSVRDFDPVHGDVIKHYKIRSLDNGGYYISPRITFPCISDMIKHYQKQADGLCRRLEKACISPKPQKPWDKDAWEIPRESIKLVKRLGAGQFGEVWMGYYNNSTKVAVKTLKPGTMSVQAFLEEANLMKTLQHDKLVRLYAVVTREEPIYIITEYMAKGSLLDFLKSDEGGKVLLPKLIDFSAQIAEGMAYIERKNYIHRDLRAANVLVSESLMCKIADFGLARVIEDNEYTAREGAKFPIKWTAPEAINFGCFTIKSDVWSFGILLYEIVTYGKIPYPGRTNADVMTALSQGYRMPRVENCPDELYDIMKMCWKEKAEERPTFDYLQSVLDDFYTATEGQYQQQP
Sequence of ProfilerPro Kinase Selectivity Assay Kit kinases (Homo sapiens, UniProt P36888) (P36888 27-993 limits assumed): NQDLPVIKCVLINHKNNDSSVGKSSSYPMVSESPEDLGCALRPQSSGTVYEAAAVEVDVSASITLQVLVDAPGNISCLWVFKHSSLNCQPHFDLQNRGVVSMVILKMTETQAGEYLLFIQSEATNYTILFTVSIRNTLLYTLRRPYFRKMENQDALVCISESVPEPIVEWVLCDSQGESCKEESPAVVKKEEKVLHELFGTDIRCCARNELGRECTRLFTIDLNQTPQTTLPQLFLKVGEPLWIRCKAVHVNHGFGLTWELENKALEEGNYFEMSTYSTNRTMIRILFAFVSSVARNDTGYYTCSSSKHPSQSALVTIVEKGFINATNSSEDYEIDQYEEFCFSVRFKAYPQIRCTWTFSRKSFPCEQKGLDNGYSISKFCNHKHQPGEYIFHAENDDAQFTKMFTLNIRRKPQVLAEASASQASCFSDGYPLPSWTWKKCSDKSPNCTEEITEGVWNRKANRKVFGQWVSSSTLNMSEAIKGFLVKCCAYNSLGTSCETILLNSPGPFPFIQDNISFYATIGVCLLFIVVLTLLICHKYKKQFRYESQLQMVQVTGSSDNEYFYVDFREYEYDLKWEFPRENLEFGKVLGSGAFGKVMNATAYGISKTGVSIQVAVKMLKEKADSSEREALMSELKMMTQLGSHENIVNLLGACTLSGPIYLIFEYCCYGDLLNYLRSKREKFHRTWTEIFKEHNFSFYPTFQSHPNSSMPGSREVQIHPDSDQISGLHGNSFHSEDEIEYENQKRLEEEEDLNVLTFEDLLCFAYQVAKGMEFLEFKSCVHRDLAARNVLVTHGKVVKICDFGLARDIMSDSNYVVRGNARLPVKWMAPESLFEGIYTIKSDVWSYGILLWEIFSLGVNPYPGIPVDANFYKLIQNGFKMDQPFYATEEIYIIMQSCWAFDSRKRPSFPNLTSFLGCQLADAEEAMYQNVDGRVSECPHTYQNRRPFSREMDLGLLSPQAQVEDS
Sequence of ProfilerPro Kinase Selectivity Assay Kit kinases (Homo sapiens, UniProt P28482) (P28482 2-360 limits assumed): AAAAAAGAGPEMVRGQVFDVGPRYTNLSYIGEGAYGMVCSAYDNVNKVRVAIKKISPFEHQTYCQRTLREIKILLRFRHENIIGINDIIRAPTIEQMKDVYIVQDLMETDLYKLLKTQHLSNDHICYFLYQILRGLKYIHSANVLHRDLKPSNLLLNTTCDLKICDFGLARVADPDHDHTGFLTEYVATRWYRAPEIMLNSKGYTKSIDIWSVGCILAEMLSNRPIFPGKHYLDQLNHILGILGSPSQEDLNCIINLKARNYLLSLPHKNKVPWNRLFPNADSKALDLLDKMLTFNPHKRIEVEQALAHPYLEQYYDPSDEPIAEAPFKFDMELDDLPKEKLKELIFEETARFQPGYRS
Sequence of ProfilerPro Kinase Selectivity Assay Kit kinases (Homo sapiens, UniProt Q16539) (Q16539 2-360 limits assumed): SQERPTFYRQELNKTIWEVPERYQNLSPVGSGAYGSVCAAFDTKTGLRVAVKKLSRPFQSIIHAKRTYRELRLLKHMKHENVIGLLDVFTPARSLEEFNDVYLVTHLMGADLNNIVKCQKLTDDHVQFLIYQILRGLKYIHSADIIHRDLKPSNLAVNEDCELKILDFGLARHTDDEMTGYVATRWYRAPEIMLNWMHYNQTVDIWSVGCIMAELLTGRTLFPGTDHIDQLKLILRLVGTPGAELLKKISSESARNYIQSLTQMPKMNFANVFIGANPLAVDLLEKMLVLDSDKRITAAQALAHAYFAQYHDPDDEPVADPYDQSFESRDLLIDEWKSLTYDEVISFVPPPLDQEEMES
Sequence of ProfilerPro Kinase Selectivity Assay Kit kinases (Homo sapiens, UniProt Q13976) (Q13976 2-671 limits assumed): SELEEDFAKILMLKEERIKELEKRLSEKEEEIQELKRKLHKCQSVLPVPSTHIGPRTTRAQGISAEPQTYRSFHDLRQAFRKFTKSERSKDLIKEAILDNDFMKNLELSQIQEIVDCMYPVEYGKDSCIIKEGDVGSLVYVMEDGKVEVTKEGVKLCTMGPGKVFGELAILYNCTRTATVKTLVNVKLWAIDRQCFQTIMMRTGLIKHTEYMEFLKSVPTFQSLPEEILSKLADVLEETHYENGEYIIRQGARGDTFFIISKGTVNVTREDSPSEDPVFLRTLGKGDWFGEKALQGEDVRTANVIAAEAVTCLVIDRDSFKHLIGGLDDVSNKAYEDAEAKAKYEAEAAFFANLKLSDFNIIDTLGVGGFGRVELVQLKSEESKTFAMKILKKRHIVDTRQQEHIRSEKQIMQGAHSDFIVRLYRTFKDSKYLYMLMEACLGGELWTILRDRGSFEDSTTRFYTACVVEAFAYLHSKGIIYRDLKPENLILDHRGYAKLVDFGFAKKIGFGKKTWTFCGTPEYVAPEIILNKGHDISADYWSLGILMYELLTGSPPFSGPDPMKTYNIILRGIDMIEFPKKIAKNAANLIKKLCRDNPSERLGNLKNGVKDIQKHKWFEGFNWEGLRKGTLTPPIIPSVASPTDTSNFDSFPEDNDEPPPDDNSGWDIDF
Sequence of ProfilerPro Kinase Selectivity Assay Kit kinases (Homo sapiens, UniProt P08581) (P08581 25-1390 limits assumed): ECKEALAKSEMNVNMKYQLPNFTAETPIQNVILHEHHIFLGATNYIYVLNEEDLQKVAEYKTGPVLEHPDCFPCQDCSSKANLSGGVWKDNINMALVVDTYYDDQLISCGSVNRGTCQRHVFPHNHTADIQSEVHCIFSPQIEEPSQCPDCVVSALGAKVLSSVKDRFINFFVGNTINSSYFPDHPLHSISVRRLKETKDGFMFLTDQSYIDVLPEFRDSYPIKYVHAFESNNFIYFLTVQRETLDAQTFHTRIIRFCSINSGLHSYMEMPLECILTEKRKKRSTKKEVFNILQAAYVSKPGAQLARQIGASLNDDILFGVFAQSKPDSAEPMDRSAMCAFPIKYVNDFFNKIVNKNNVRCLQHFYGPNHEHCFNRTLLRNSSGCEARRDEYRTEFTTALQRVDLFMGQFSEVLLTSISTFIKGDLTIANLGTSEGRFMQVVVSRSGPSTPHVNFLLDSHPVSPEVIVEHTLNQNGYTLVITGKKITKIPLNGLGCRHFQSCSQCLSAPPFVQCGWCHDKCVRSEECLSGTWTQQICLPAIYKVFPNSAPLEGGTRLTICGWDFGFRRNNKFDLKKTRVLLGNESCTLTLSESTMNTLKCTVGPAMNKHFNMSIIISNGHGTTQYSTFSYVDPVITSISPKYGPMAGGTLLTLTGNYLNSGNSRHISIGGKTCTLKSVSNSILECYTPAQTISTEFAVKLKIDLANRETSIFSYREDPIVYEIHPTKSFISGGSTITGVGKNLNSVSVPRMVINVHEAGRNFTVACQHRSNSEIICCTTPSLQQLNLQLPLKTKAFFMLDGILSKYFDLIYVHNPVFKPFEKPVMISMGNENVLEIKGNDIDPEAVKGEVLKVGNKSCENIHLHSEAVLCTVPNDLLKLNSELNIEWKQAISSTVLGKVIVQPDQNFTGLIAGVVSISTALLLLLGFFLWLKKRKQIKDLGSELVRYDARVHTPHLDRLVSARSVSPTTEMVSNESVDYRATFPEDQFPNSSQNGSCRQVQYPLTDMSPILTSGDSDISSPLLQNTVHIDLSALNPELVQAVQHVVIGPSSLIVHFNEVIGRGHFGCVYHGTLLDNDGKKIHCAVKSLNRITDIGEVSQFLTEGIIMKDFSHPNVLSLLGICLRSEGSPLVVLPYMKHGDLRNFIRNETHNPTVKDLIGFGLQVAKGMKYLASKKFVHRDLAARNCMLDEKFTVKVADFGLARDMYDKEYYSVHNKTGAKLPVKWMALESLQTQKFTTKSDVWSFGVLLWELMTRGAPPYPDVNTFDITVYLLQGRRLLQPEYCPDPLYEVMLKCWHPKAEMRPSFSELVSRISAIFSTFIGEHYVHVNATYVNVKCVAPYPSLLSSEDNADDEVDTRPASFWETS

`COc1ccc(Nc2ncc(Cc3ccc(S(C)(=O)=O)cc3)cc2-c2nc(C)nc3[nH]cnc23)cn1` [Example 103, N-(6-methoxypyridin-3-yl)-3-(2-methyl-9H-purin-6-yl)-5-(4-(methylsulfonyl)benzyl)pyridin-2-amine] was tested, and the “POC (Percent of control) SGK1” value [1] was 96 POC, the “POC (Percent of control) AURORA A” value [2] was 100 POC and the “POC (Percent of control) MSK1” value [3] was 101 POC. The “POC (Percent of control) CHK2” value [4] was 94 POC, the “POC (Percent of control) ABL” value [5] was 95 POC and the “POC (Percent of control) cRAF” value [6] was 100 POC. For the same molecule, the “POC (Percent of control) LCK” value [7] was 92 POC, the “POC (Percent of control) FYN” value [8] was 97 POC and the “POC (Percent of control) LYN” value [9] was 97 POC. The “POC (Percent of control) IGF1R” value [10] was 91 POC, the “POC (Percent of control) cMET” value [11] was 94 POC and the “POC (Percent of control) FGFR1” value [12] was 100 POC. The “POC (Percent of control) SRC” value [13] was 89 POC, the “POC (Percent of control) p70S6K” value [14] was 109 POC and the “POC (Percent of control) CDK2” value [15] was 100 POC. The “POC (Percent of control) ERK1” value [16] was 101 POC, the “POC (Percent of control) ERK2” value [17] was 94 POC and the “POC (Percent of control) AKT1” value [18] was 94 POC. The “POC (Percent of control) KDR” value [19] was 91 POC, the “POC (Percent of control) FLT3” value [20] was 85 POC and the “POC (Percent of control) SYK” value [21] was 99 POC. The “POC (Percent of control) GSK3 beta” value [22] was 96 POC, the “POC (Percent of control) PKC zeta” value [23] was 98 POC and the “POC (Percent of control) MST2” value [24] was 98 POC. The “POC (Percent of control) DYRK1a” value [25] was 83 POC, the “POC (Percent of control) PKGa2” value [26] was 98 POC and the “POC (Percent of control) RSK1” value [27] was 100 POC. For the same molecule, the “POC (Percent of control) p38 alpha” value [28] was 92 POC, the “POC (Percent of control) CAMK4” value [29] was 95 POC and the “POC (Percent of control) PKD2” value [30] was 87 POC. For the same molecule, the “POC (Percent of control) AMPK” value [31] was 102 POC, the “POC (Percent of control) CAMK2” value [31] was 95 POC and the “POC (Percent of control) PKC beta2” value [31] was 100 POC. The “POC (Percent of control) TAK1” value [31] was 115 POC.
With `Cc1nc(-c2cccnc2Nc2cccc3[nH]ncc23)c2nc[nH]c2n1` [Example 57, N-(3-(2-methyl-9H-purin-6-yl)pyridin-2-yl)-1H-indazol-4-amine] the “POC (Percent of control) SGK1” value [1] was 92 POC, the “POC (Percent of control) AURORA A” value [2] was 99 POC and the “POC (Percent of control) MSK1” value [3] was 101 POC. The “POC (Percent of control) CHK2” value [4] was 98 POC, the “POC (Percent of control) ABL” value [5] was 94 POC and the “POC (Percent of control) cRAF” value [6] was 100 POC. The “POC (Percent of control) LCK” value [7] was 96 POC, the “POC (Percent of control) FYN” value [8] was 103 POC and the “POC (Percent of control) LYN” value [9] was 95 POC. The “POC (Percent of control) IGF1R” value [10] was 77 POC, the “POC (Percent of control) cMET” value [11] was 100 POC and the “POC (Percent of control) FGFR1” value [12] was 95 POC. For the same molecule, the “POC (Percent of control) SRC” value [13] was 93 POC, the “POC (Percent of control) p70S6K” value [14] was 94 POC and the “POC (Percent of control) CDK2” value [15] was 95 POC. For the same molecule, the “POC (Percent of control) ERK1” value [16] was 100 POC, the “POC (Percent of control) ERK2” value [17] was 97 POC and the “POC (Percent of control) AKT1” value [18] was 102 POC. The “POC (Percent of control) KDR” value [19] was 90 POC, the “POC (Percent of control) FLT3” value [20] was 92 POC and the “POC (Percent of control) SYK” value [21] was 100 POC. For the same molecule, the “POC (Percent of control) GSK3 beta” value [22] was 101 POC, the “POC (Percent of control) PKC zeta” value [23] was 100 POC and the “POC (Percent of control) MST2” value [24] was 95 POC. For the same molecule, the “POC (Percent of control) DYRK1a” value [25] was 91 POC, the “POC (Percent of control) PKGa2” value [26] was 98 POC and the “POC (Percent of control) RSK1” value [27] was 97 POC. For the same molecule, the “POC (Percent of control) p38 alpha” value [28] was 100 POC, the “POC (Percent of control) CAMK4” value [29] was 93 POC and the “POC (Percent of control) PKD2” value [30] was 97 POC. The “POC (Percent of control) AMPK” value [31] was 92 POC, the “POC (Percent of control) CAMK2” value [31] was 109 POC and the “POC (Percent of control) PKC beta2” value [31] was 97 POC. For the same molecule, the “POC (Percent of control) TAK1” value [31] was 97 POC.
For `Cc1nc(N)nc(-c2cccnc2Nc2cccc3[nH]ccc23)n1` [Example 22, N-(3-(4-Amino-6-Methyl-1,3,5-Triazin-2-yl)Pyridin-2-yl)-1H-Indol-4-Amine], the “POC (Percent of control) SGK1” value [1] was 99 POC, the “POC (Percent of control) AURORA A” value [2] was 102 POC and the “POC (Percent of control) MSK1” value [3] was 103 POC. The “POC (Percent of control) CHK2” value [4] was 102 POC, the “POC (Percent of control) ABL” value [5] was 103 POC and the “POC (Percent of control) cRAF” value [6] was 98 POC. The “POC (Percent of control) LCK” value [7] was 97 POC, the “POC (Percent of control) FYN” value [8] was 103 POC and the “POC (Percent of control) LYN” value [9] was 108 POC. For the same molecule, the “POC (Percent of control) IGF1R” value [10] was 97 POC, the “POC (Percent of control) cMET” value [11] was 106 POC and the “POC (Percent of control) FGFR1” value [12] was 96 POC. The “POC (Percent of control) SRC” value [13] was 101 POC, the “POC (Percent of control) p70S6K” value [14] was 74 POC and the “POC (Percent of control) CDK2” value [15] was 107 POC. For the same molecule, the “POC (Percent of control) ERK1” value [16] was 99 POC, the “POC (Percent of control) ERK2” value [17] was 103 POC and the “POC (Percent of control) AKT1” value [18] was 102 POC. The “POC (Percent of control) KDR” value [19] was 106 POC, the “POC (Percent of control) FLT3” value [20] was 105 POC and the “POC (Percent of control) SYK” value [21] was 96 POC. For the same molecule, the “POC (Percent of control) GSK3 beta” value [22] was 94 POC, the “POC (Percent of control) PKC zeta” value [23] was 98 POC and the “POC (Percent of control) MST2” value [24] was 98 POC. For the same molecule, the “POC (Percent of control) DYRK1a” value [25] was 96 POC, the “POC (Percent of control) PKGa2” value [26] was 93 POC and the “POC (Percent of control) RSK1” value [27] was 100 POC. The “POC (Percent of control) p38 alpha” value [28] was 101 POC, the “POC (Percent of control) CAMK4” value [29] was 95 POC and the “POC (Percent of control) PKD2” value [30] was 99 POC. For the same molecule, the “POC (Percent of control) AMPK” value [31] was 92 POC, the “POC (Percent of control) CAMK2” value [31] was 118 POC and the “POC (Percent of control) PKC beta2” value [31] was 96 POC. For the same molecule, the “POC (Percent of control) TAK1” value [31] was 99 POC.
